Data as given in ChEMBL document CHEMBL4507291 (2021).

Assays:
[1] = biological target: Alpha-1B adrenergic receptor (Homo sapiens) (UniProt P35368); details: Compound concentration 10.0 uM
Rattus norvegicus = organism: Rattus norvegicus; experiment: Inhibition of Glutamate, NMDA, Phencyclidine at 10 µM in the Eurofins-Panlabs radioligand binding assay (Eurofins_assay_233000); assay type: protein-complex assay; details: Compound concentration 10.0 uM
[2] = biological target: MAO-B (amine oxidase [flavin-containing] B) (Homo sapiens, UniProt P27338); experiment: Inhibition of Monoamine Oxidase MAO-B at compound concentration of 10.0 uM in the Eurofins-Panlabs enzyme assay (Eurofins_assay_140120); parameters: substrate with concentration 50 uM Kynuramine, incubation time 60 min, incubation temperature 37 C; details: recombinant human MAO-B expressed in insect Hi5 cells, probe kynuramine (50 uM), compound concentration 10 uM
[3] = biological target: 5-hydroxytryptamine receptor 2A (Homo sapiens) (UniProt P28223); details: Compound concentration 10.0 uM
[4] = biological target: Tyrosine-protein kinase SYK (Homo sapiens) (UniProt P43405); experiment: SYK Kinase screen; details: Compound concentration 1.0 uM
[5] = biological target: Calcium/calmodulin-dependent protein kinase type 1 (Homo sapiens) (UniProt Q14012); experiment: CAMK1 (CaMK1) Kinase screen; details: Compound concentration 1.0 uM
[6] = biological target: Dual specificity tyrosine-phosphorylation-regulated kinase 1B (Homo sapiens) (UniProt Q9Y463); experiment: DYRK1B Kinase screen; details: Compound concentration 1.0 uM
[7] = biological target: Receptor tyrosine-protein kinase erbB-4 (Homo sapiens) (UniProt Q15303); experiment: ERBB4 (HER4) Kinase screen; details: Compound concentration 1.0 uM
[8] = biological target: Mitogen-activated protein kinase kinase kinase 9 (Homo sapiens) (UniProt P80192); experiment: MAP3K9 (MLK1) Kinase screen; details: Compound concentration 1.0 uM
Homo sapiens = organism: Homo sapiens; experiment: Chemokine CCR1 Eurofins-Panlabs radioligand binding assay; parameters: ligand concentration 0.1 nM; details: Compound concentration 10.0 uM
[9] = biological target: Substance-P receptor (Homo sapiens) (UniProt P25103); experiment: Inhibition of Tachykinin NK1 at 10 µM in the Eurofins-Panlabs radioligand binding assay (Eurofins_assay_255520); parameters: ligand concentration 0.8 nM; details: Compound concentration 10.0 uM
[10] = biological target: Tyrosine-protein kinase Lyn (Homo sapiens) (UniProt P07948); experiment: LYN A Kinase screen; details: Compound concentration 1.0 uM
[11] = biological target: T1, Serine/threonine-protein kinase Sgk2 (Homo sapiens) (UniProt Q9HBY8); experiment: SGK2 Kinase screen; details: Compound concentration 1.0 uM
T1 sequence (whole entry): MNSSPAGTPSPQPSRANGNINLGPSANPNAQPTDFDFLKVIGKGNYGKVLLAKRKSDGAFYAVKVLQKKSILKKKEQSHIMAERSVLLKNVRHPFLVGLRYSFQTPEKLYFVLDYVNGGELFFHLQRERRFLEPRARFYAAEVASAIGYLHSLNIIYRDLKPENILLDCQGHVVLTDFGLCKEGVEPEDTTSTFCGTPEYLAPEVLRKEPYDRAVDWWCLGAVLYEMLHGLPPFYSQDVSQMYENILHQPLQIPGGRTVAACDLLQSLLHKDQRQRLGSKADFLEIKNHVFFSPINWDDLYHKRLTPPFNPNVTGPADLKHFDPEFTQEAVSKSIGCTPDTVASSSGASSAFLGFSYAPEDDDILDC

[12] = biological target: CDK9/cyclin T1 (Homo sapiens) (UniProt O60563+P50750); experiment: CDK9/cyclin T1 Kinase screen; assay type: protein-complex assay; details: Compound concentration 1.0 uM
[13] = biological target: Macrophage-stimulating protein receptor (Homo sapiens) (UniProt Q04912); experiment: MST1R (RON) Kinase screen; details: Compound concentration 1.0 uM
[14] = biological target: T2, Serine/threonine-protein kinase D2 (Homo sapiens) (UniProt Q9BZL6); experiment: PRKD2 (PKD2) Kinase screen; details: Compound concentration 1.0 uM
T2 sequence (whole entry): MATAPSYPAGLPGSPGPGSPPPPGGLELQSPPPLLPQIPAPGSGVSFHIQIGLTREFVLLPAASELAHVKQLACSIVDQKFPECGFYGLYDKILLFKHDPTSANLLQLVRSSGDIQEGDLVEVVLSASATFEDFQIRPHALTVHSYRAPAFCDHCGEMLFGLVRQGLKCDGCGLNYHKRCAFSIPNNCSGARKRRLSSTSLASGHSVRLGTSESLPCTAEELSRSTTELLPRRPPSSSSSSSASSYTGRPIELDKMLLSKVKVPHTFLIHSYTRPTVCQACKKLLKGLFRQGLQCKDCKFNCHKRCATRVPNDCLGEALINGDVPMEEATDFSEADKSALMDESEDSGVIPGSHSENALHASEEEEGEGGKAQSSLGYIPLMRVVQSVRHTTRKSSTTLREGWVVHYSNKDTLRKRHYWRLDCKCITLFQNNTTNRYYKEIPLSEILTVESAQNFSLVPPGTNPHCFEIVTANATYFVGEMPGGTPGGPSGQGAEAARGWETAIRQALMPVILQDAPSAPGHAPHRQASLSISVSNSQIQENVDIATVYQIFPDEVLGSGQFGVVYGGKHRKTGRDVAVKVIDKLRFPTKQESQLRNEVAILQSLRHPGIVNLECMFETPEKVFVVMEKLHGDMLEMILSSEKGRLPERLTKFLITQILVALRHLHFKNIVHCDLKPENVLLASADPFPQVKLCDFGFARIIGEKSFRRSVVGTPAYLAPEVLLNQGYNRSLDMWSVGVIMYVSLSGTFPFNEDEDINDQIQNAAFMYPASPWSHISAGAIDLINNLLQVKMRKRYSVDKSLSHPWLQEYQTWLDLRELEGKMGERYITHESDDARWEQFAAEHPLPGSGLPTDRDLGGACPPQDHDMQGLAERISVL

[15] = biological target: MAP/microtubule affinity-regulating kinase 3 (Homo sapiens) (UniProt P27448); experiment: Protein Serine/Threonine Kinase, MARK3 Eurofins-Panlabs enzyme assay; details: Compound concentration 10.0 uM
[16] = biological target: Glucocorticoid receptor (Homo sapiens) (UniProt P04150); details: Compound concentration 10.0 uM
[17] = biological target: Corticotropin-releasing factor receptor 1 (Homo sapiens) (UniProt P34998); experiment: Corticotropin Releasing Factor CRF1 Eurofins-Panlabs radioligand binding assay; details: Compound concentration 10.0 uM
[18] = biological target: Serine/threonine-protein kinase SIK2 (Homo sapiens) (UniProt Q9H0K1); experiment: SNF1LK2 Kinase screen; details: Compound concentration 1.0 uM
[19] = biological target: CDK9/Cyclin K (Homo sapiens) (UniProt P50750+O75909); experiment: CDK9/cyclin K Kinase screen; assay type: protein-complex assay; details: Compound concentration 1.0 uM
[20] = biological target: Phosphodiesterase 3 (Homo sapiens) (UniProt Q14432+Q13370); experiment: Inhibition of Phosphodiesterase PDE3 at compound concentration of 10.0 uM in the Eurofins-Panlabs enzyme assay (Eurofins_assay_152000); assay type: protein assay; parameters: substrate with concentration 1.01 uM [3H] cAMP + cAMP, incubation time 20 min, incubation temperature 25 C; details: Compound concentration 10.0 uM
[21] = biological target: Mitogen-activated protein kinase 1 (Homo sapiens) (UniProt P28482); experiment: MAPK1 (ERK2) Kinase screen; details: Compound concentration 1.0 uM
Sequence of Mitogen-activated protein kinase 1 (Homo sapiens) (P28482 whole entry): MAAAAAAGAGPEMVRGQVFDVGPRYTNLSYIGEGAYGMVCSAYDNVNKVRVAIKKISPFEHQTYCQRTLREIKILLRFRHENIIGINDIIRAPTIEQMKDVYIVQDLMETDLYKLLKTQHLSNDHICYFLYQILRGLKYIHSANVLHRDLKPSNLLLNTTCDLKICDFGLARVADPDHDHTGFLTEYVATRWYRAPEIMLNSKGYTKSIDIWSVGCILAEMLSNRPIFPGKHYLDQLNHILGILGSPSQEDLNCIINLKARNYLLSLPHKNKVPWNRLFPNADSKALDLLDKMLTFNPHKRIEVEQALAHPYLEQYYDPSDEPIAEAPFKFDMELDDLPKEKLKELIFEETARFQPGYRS

Sequence of Calcium/calmodulin-dependent protein kinase type 1 (Homo sapiens) (Q14012 whole entry, looked up): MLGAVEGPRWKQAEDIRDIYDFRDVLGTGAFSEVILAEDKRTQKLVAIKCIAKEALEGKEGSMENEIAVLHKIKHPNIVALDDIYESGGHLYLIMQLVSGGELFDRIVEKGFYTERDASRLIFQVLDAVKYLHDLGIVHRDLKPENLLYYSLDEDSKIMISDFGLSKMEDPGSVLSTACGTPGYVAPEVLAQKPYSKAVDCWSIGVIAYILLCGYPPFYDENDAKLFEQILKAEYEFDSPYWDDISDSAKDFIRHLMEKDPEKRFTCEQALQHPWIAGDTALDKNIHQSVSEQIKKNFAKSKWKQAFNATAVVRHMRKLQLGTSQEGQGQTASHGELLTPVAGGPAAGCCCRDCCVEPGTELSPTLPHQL
Sequence of Alpha-1B adrenergic receptor (Homo sapiens) (P35368 whole entry): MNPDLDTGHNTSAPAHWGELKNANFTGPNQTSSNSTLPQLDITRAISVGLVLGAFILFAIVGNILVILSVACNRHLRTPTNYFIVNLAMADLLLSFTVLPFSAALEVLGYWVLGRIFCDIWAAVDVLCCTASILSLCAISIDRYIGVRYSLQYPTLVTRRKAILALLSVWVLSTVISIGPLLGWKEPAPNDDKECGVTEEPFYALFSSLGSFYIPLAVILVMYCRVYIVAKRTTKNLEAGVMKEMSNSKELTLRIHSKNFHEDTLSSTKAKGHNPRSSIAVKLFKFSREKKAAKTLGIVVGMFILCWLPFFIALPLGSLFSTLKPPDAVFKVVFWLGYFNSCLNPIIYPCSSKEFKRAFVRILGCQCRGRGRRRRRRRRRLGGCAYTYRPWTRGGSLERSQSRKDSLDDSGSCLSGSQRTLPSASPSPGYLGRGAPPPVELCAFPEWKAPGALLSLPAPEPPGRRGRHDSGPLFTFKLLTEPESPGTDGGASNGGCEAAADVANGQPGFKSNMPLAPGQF
Sequence of Corticotropin-releasing factor receptor 1 (Homo sapiens) (P34998 whole entry): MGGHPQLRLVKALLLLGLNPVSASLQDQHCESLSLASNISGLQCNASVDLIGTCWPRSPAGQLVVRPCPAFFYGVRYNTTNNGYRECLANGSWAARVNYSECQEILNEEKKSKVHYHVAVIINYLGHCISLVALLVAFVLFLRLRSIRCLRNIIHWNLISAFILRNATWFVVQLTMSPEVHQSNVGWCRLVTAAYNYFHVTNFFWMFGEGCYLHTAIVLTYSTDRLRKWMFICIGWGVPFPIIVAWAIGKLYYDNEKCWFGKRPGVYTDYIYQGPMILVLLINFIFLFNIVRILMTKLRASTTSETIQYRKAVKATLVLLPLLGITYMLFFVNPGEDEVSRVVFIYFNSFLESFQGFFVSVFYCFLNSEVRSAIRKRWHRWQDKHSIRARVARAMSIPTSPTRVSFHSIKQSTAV
Sequence of Glucocorticoid receptor (Homo sapiens) (P04150 whole entry): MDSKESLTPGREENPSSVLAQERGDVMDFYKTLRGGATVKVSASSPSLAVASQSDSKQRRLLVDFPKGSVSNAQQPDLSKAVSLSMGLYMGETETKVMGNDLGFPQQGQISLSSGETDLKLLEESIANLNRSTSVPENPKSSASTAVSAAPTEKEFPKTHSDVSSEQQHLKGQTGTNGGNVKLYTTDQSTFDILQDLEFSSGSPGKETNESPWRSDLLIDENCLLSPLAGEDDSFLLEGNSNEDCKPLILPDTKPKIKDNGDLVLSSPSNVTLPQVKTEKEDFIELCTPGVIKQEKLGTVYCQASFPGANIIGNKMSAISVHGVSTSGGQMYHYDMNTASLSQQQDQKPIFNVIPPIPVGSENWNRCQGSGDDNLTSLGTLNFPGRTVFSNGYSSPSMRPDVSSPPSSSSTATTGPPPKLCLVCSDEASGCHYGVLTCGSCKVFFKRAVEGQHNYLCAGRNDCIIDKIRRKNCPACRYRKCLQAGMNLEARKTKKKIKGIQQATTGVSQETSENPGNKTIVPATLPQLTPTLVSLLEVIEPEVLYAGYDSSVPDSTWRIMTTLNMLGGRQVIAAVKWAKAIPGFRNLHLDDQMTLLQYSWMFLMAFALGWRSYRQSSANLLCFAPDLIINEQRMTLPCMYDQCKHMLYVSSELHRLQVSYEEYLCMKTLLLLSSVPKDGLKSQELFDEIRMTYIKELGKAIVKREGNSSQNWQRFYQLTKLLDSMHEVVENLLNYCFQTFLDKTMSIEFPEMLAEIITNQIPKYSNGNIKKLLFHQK
Sequence of Mitogen-activated protein kinase kinase kinase 9 (Homo sapiens) (P80192 whole entry, looked up): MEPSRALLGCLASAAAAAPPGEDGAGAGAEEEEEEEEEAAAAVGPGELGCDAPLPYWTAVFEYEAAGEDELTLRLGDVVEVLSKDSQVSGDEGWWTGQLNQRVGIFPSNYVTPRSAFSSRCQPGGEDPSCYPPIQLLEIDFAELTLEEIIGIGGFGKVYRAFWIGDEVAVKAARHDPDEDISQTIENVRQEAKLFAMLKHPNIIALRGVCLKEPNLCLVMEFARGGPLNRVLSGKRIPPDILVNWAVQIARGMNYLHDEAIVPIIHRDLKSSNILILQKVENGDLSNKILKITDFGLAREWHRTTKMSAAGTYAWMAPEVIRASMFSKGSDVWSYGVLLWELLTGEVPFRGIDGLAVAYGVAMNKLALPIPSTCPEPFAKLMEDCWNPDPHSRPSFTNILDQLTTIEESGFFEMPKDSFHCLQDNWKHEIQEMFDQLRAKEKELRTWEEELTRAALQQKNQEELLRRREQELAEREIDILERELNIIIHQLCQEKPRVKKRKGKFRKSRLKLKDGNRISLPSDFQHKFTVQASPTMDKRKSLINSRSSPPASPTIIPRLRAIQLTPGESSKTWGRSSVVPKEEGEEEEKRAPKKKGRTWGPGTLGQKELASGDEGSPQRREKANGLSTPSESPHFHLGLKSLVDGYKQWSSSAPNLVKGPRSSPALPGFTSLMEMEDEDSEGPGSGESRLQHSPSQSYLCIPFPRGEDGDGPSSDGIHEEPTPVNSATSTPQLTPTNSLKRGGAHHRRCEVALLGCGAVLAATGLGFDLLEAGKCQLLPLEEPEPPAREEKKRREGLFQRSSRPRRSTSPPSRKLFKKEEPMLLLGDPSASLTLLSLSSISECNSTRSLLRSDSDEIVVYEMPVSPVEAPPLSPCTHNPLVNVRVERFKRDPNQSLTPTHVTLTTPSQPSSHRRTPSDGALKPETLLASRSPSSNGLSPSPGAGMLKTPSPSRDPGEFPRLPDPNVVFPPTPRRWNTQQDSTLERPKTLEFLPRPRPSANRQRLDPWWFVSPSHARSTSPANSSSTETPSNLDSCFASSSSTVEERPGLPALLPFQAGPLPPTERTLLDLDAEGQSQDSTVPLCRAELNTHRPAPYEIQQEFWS
Sequence of Receptor tyrosine-protein kinase erbB-4 (Homo sapiens) (Q15303 whole entry): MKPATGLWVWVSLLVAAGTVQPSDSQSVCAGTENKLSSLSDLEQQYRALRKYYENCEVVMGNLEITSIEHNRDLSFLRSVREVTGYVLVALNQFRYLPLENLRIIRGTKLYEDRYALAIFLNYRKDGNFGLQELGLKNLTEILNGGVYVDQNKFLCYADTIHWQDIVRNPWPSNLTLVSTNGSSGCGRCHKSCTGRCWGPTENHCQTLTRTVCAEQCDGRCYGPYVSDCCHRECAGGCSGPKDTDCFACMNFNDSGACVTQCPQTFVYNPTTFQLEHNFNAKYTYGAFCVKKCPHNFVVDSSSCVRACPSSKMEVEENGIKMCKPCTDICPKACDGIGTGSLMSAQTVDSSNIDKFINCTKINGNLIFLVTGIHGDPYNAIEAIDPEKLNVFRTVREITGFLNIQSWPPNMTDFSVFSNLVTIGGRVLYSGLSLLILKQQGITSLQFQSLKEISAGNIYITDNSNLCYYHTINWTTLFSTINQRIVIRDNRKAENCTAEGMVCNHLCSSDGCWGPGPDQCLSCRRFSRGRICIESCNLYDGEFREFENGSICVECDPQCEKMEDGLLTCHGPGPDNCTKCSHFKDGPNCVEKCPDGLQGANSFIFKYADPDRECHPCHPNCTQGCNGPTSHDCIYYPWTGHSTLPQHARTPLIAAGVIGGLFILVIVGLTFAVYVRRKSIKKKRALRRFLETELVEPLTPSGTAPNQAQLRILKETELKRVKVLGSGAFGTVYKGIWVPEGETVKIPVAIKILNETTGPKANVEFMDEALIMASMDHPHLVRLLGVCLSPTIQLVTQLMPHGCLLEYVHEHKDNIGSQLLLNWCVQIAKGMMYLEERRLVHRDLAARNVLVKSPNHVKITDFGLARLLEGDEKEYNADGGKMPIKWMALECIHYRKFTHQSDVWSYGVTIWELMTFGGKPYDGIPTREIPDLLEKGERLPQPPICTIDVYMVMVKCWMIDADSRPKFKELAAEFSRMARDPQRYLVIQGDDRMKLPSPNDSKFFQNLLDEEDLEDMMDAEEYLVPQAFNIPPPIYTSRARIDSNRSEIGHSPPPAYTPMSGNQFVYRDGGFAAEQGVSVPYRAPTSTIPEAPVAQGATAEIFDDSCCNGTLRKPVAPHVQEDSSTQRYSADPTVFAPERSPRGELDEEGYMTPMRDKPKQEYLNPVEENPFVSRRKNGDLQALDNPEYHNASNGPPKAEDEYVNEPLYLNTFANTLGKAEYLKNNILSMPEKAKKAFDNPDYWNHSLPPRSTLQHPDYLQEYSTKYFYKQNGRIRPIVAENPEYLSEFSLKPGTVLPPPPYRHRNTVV

Work on `C[C@@H]1CN(c2cc(-c3nn(C)c4ccc(OC5(C)CC5)cc34)ncn2)C[C@H](C)O1` [MLi-2-NC] yielded an inhibition [1] of 3.72%.

For `C[C@@H]1CN(c2cc(-c3n[nH]c4ccc(OC5(C)CC5)cc34)ncn2)C[C@H](C)O1` [MLi-2], the inhibition (Rattus norvegicus) was -1%, the inhibition at 60 min, 10 µM [2] was 28% (not active) and the inhibition [3] was 6%. It also gave an inhibition [4] of 2.84%, an inhibition [5] of -4.05% and an inhibition [6] of 1.77%. The inhibition [7] was 11.9%, the inhibition [8] was 27.3% and the inhibition (Homo sapiens) was -3%. For the same compound, the inhibition [9] was 22%, the inhibition [10] was 1.05% and the inhibition [11] was 1.36%. The inhibition [12] was 11.3%, the inhibition [13] was 1.51% and the inhibition [14] was 19%. For the same compound, the inhibition [15] was 11%, the inhibition [16] was 19% and the inhibition [17] was 6%. The inhibition [18] was 7.08%, the inhibition [19] was -2.24% and the inhibition [20] was 21%. It also gave an inhibition [21] of -3.99%.
